Measurements: patent publication US8044069B2, “Compounds as calcium channel blockers” (Abbott Laboratories, priority 2008, dated 2011)

Key:
human Cav2.2 = human Cav2.2 (Homo sapiens, UniProt Q00975); test: Assessment of calcium channel activity using FLIPR (Ca2+ influx in IMR32 cells); type: cell-based; settings: IMR32 cells endogenously expressing human Cav2.2; 60 minute pre-incubation; 2 μM nifedipine; depolarized with 80 mM KCl, 5 mM CaCl2
How it was run: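 IMR32 cells were dye-loaded and pre-incubated 60 min with compound (10 μM to 0.1 nM) in 1.3 mM CaCl2 plus 2 μM nifedipine to block L-type channels. Cells were then depolarized with 80 mM KCl while Ca2+ was raised to 5 mM, and FLIPR read the influx. IC50 came from a sigmoidal fit of % inhibition versus the no-inhibitor control.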

Sprague Dawley rats = test: Capsaicin induced secondary mechanical hyperalgesia model; type: in vivo; settings: Rattus norvegicus, po, 1 h; 30 mg/kg p.o., 60 minutes before testing; secondary mechanical hyperalgesia 180 minutes after capsaicin; von Frey paw withdrawal threshold
Description: (ii) In Vivo Data—Capsaicin Induced Secondary Mechanical Hyperalgesia Model:
Sprague Dawley rats were briefly restrained, and capsaicin was administered at 10 μg in 10 μL of vehicle by intraplantar injection into the center of the right hind paw. Secondary mechanical hyperalgesia (SMH) was measured at the heel away from the site of injection 180 minutes following capsaicin exposure. Compounds and gabapentin (positive control), were administered p.o. 60 minutes before testing (2 hours after capsaicin) or i.p. 30 minutes before testing (2.5 hours after capsaicin). SMH was measured using calibrated von Frey filaments (Stoelting, Woodale, Ill.). Following the 1 hour habituation in the testing room, rats were moved to individual plexiglass chambers that sit on top of a wire mesh to allow for access for stimulation of the plantar surface of the hind paws. Rats were allowed to acclimate to the new chambers for 15 minutes before the onset of testing. The paw withdrawal threshold was determined by increasing and decreasing stimulus intensity (force: g) and calculated using Dixon's up-down method (Chaplan, S. R.; Bach, F. W.; Pogrel, J. W.; Chung, J. M.; Yaksh, T. L.; Quantitative assessment of tactile allodynia in the rat paw. J. Neuroscience Methods 1994, 53(1), 55-63). The filaments (maximum force of 15.0 g) were held in place for 8 seconds or until there was a withdrawal response from the mechanical stimulation.

Chain of human Cav2.2 (Q00975 whole entry): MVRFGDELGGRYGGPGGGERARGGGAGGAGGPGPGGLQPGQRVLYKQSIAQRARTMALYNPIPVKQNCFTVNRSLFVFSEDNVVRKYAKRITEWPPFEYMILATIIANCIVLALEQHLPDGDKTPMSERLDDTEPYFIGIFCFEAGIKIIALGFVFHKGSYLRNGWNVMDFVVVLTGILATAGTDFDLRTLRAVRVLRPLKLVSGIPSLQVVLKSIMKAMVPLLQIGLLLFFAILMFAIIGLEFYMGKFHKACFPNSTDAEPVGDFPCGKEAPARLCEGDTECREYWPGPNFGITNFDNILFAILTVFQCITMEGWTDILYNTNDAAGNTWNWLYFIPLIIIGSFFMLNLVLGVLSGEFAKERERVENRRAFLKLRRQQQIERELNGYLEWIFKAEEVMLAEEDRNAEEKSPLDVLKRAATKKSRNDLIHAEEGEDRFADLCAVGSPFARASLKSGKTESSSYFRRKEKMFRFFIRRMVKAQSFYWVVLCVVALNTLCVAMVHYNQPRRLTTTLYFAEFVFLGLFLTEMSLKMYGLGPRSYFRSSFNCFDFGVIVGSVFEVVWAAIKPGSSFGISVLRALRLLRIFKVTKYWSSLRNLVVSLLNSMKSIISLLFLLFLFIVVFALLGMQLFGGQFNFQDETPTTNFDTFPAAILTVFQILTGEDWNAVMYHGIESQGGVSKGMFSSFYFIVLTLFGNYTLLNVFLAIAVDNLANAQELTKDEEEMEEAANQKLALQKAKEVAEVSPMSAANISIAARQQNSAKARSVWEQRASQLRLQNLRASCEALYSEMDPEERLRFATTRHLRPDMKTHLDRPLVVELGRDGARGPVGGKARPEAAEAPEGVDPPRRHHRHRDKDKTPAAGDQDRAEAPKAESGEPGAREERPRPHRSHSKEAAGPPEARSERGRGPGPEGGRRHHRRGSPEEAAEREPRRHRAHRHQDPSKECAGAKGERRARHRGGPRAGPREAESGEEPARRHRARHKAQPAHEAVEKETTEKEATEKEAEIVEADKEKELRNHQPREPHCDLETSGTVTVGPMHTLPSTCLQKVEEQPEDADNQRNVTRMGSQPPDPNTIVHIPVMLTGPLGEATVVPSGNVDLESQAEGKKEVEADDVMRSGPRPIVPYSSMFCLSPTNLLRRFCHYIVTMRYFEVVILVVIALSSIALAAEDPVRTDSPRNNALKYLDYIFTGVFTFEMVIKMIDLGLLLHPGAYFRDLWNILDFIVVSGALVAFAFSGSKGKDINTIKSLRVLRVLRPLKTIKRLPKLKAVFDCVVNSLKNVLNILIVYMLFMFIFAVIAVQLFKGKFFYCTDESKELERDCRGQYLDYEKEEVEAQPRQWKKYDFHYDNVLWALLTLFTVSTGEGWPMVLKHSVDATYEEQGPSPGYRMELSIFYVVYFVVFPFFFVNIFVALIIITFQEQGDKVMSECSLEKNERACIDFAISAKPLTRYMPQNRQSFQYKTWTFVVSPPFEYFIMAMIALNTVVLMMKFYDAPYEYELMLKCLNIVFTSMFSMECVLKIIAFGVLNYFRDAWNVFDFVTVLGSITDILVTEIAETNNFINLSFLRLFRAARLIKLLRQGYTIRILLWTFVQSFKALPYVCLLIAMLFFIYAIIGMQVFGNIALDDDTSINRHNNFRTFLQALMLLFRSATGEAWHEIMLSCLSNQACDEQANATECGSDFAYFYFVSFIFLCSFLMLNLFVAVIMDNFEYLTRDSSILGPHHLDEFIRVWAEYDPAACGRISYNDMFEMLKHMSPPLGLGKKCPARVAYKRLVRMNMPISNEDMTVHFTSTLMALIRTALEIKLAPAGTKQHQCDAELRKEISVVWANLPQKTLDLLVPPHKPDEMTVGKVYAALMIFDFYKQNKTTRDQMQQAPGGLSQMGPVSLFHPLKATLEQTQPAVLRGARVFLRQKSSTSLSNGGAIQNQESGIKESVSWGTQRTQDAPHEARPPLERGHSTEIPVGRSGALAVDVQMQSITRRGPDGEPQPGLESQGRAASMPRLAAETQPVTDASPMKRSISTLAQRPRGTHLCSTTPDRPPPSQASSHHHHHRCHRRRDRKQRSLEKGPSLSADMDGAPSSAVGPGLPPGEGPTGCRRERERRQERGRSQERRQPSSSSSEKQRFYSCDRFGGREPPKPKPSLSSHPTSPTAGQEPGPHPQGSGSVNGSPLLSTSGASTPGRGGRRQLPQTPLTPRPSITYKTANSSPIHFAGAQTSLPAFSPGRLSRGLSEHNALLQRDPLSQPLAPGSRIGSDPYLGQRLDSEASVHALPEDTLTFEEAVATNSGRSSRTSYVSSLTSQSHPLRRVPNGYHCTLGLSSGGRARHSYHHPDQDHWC
Chain of human Cav2.2 (P54289 25-951 partner limits assumed): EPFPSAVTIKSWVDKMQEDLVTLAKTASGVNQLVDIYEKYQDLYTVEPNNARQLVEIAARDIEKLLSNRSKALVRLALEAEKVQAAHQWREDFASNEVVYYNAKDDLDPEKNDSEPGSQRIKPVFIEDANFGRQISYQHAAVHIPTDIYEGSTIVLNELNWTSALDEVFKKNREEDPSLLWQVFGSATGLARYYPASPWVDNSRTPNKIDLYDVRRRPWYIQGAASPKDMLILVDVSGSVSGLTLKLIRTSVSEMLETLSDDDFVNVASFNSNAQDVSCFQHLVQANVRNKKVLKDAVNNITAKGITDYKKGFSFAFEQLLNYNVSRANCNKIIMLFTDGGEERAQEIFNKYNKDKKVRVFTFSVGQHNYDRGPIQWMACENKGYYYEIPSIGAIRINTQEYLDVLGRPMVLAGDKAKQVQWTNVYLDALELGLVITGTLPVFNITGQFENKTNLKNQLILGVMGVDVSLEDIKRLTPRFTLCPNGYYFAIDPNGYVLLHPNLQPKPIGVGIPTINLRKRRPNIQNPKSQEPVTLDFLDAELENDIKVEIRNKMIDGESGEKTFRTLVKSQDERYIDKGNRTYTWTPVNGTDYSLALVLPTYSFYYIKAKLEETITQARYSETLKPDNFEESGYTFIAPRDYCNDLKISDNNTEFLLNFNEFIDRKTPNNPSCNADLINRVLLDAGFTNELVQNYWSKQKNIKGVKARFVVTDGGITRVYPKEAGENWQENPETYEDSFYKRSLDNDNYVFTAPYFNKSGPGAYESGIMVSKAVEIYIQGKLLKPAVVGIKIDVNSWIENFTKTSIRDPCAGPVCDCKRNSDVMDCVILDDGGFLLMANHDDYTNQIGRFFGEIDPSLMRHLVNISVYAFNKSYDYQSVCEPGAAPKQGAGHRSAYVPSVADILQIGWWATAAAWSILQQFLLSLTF
Chain of human Cav2.2 (P54289 952-1103 partner limits assumed): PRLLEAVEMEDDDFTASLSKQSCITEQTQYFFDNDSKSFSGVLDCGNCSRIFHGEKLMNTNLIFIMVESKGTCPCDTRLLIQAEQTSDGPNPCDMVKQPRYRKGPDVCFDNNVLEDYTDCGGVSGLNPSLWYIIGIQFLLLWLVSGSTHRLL
Chain of human Cav2.2 (P54284 whole entry partner): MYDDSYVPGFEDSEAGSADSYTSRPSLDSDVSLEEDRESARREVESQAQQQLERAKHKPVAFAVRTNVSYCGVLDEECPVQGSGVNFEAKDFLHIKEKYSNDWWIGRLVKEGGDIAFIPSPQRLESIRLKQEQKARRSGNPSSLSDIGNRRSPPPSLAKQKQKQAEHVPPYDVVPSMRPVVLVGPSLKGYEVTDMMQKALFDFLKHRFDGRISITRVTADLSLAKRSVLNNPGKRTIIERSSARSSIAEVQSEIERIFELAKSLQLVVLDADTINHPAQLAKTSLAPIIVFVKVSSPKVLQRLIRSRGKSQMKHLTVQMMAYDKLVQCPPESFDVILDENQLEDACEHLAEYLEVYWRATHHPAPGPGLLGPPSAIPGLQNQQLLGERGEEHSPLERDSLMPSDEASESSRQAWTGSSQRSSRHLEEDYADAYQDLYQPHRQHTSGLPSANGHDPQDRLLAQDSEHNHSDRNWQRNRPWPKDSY

IC50 (human Cav2.2) [µM] | SMILES | inhibition in vivo at 30 mg/kg (Sprague Dawley rats) [%]
0.43 | O=C(CN1CCC(c2ccccc2)(c2ccccc2)C1=O)N1CCN(C(c2ccc(F)cc2)c2ccc(F)cc2)CC1 [Example 45, 1-(2-{4-[bis(4-fluorophenyl)methyl]piperazin-1-yl}-2-oxoethyl)-3,3-diphenylpyrrolidin-2-one] | 51
0.78 | O=C(CN1CCC(c2ccccc2)(c2ccccc2)C1=O)NC1CCN(Cc2cccc(C(F)(F)F)c2)CC1 [Example 41, 2-(2-oxo-3,3-diphenylpyrrolidin-1-yl)-N-{1-[3-(trifluoromethyl)benzyl]piperidin-4-yl}acetamide] | 75
0.93 | O=C(CN1CCCC(c2ccccc2)(c2ccccc2)C1=O)N1CCN(Cc2cccc(C(F)(F)F)c2)CC1 [Example 79, 1-(2-oxo-2-{4-[3-(trifluoromethyl)benzyl]piperazin-1-yl}ethyl)-3,3-diphenylpiperidin-2-one] | 49
14.1 | O=C(CN1CCC(c2ccc(F)cc2)C1=O)N1Cc2ccc(C(F)(F)F)cc2C1 (single isomer, unassigned; (+)) [Example 264, (+)-3-(4-fluorophenyl)-1-{2-oxo-2-[5-(trifluoromethyl)-1,3-dihydro-2H-isoindol-2-yl]ethyl}pyrrolidin-2-one] | 49
2.18 | O=C(CN1CCCC(c2ccccc2)C1=O)N1CCN(C(c2ccccc2)c2ccccc2)CC1 (stereo not shown) [Example 91, 1-[2-(4-benzhydrylpiperazin-1-yl)-2-oxoethyl]-3-phenylpiperidin-2-one] | 58
1.38 | O=C(CN1CCCC(c2ccccc2)(c2ccccc2)C1=O)N1CCN(C(c2ccccc2)c2ccccc2)CC1 [Example 68, 1-[2-(4-benzhydrylpiperazin-1-yl)-2-oxoethyl]-3,3-diphenylpiperidin-2-one] | 71
1.09 | O=C(CN1CCC(c2ccccc2)(c2ccccc2)C1=O)N1CCN(C(c2ccccc2)c2ccccc2)C(=O)C1 [Example 28, 1-benzhydryl-4-[(2-oxo-3,3-diphenylpyrrolidin-1-yl)acetyl]piperazin-2-one] | 60
1.1 | O=C(CN1CCC(c2ccccc2)(c2ccccc2)C1=O)N1CCN(C(c2ccccc2)c2ccccc2)CC1 [Example 1, 1-[2-(4-benzhydrylpiperazin-1-yl)-2-oxoethyl]-3,3-diphenylpyrrolidin-2-one] | 61
